The target in one data set is T1, DRB1*0101 (Homo sapiens, UniProt P01903+P01911, A100R/D57E/F55L/F60I/F76Y/I96L/L162R/M171V/P40L/Q125E/R42F/V115G/Y59C).
T1 construct: Epstein-Barr virus (EBV) transformed homozygous cell lines were used as sources of human HLA Class II molecules; endogenous in cells; host or cells: LG2 (EBV-transformed homozygous B cell line)
The experiment in a line: Class II peptide-binding assay DRB1*0101 (DR1).

A further data set deals with T2, DRB1*0301 (Homo sapiens, UniProt P01903+P01911, A100K/A102G/A103R/A169T/F55Y/I96L/K41T/L162R/M171V/P40S/Q125H/Q178H/Q39Y/R42S/S66N/T106N/T262R/W38E/Y61H).
T2 construct: Epstein-Barr virus (EBV) transformed homozygous cell lines were used as sources of human HLA Class II molecules; endogenous in cells; host or cells: MAT (EBV-transformed homozygous B cell line)
T2 sequence (P01903 26-254, other chains not shown): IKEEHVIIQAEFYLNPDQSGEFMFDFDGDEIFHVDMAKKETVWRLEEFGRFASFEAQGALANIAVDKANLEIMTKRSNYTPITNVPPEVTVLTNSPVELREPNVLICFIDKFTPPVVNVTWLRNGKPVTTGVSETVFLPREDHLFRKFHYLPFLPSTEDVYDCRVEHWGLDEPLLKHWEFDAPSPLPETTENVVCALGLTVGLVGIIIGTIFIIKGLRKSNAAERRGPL
The experiment in a line: Class II peptide-binding assay DRB1*0301 (DR3).

In another data set the target is T3, DRB1*0401 (Homo sapiens, UniProt P01903+P01911, A100K/A169T/F76Y/I96L/K127E/L162R/M171V/N62H/P40V/Q125Y/R42H/S133A/S149N/S66Y/V115G/V209L/W38E).
T3 construct: Epstein-Barr virus (EBV) transformed homozygous cell lines were used as sources of human HLA Class II molecules; endogenous in cells; host or cells: PREISS (EBV-transformed homozygous B cell line)
Kind of data set: Class II peptide-binding assay DRB1*0401 (DR4w4).

The target of a further data set is T4, DRB1*0404 (Homo sapiens, UniProt P01903+P01911, A100R/A169T/F76Y/I96L/K127E/L162R/M171V/N62H/P40V/Q125Y/R42H/S133A/S149N/S66Y/V209L/W38E).
T4 construct: Epstein-Barr virus (EBV) transformed homozygous cell lines were used as sources of human HLA Class II molecules; endogenous in cells; host or cells: BIN40 (EBV-transformed homozygous B cell line)
Kind of data set: Class II peptide-binding assay DRB1*0404 (DR4w14).

For the next data set, the target named is T5, DRB1*0405 (Homo sapiens, UniProt P01903+P01911, A100R/A169T/D86S/F76Y/I96L/K127E/L162R/M171V/N62H/P40V/Q125Y/R42H/S133A/S149N/S66Y/V115G/V209L/W38E).
T5 construct: Epstein-Barr virus (EBV) transformed homozygous cell lines were used as sources of human HLA Class II molecules; endogenous in cells; host or cells: KT3 (EBV-transformed homozygous B cell line)
The experiment in a line: Class II peptide-binding assay DRB1*0405 (DR4w15).

The target of another data set is T6, DRB1*0701 (Homo sapiens, UniProt P01903+P01911, A100R/A102G/A103Q/D57E/D86V/E43K/F76Y/K127E/L162R/M171V/P40G/Q125H/Q99D/R33Q/R42Y/R54Q/S133A/S66F/T210M/V115G/Y107V/Y59L/Y89S).
T6 construct: Epstein-Barr virus (EBV) transformed homozygous cell lines were used as sources of human HLA Class II molecules; endogenous in cells; host or cells: PITOUT (EBV-transformed homozygous B cell line)
Kind of data set: Class II peptide-binding assay DRB1*0701 (DR7).

The target of another data set is T7, DRB1*0802 (Homo sapiens, UniProt P01903+P01911, A100R/A103L/A169T/F76Y/H45Y/I96F/K41T/L162R/M171V/P40S/Q125H/Q178H/Q39Y/Q99D/R218S/R42G/S66Y/V115G/W38E).
T7 construct: Epstein-Barr virus (EBV) transformed homozygous cell lines were used as sources of human HLA Class II molecules; endogenous in cells; host or cells: OLL (EBV-transformed homozygous B cell line)
Kind of data set: Class II peptide-binding assay DRB1*0802 (DR8w2).

Another data set concerns the target DRB1*0901 (Homo sapiens, UniProt P01903+P01911, A100R/A103E/D57H/D86V/F55Y/F60I/F76Y/I96F/K127E/L162R/M171V/P40D/Q125H/Q99R/R33Q/R42F/S133A/S66N/T210M/V115G/W38K/Y107V/Y59G/Y89S). The experiment in a line: Class II peptide-binding assay DRB1*0901 (DR9).
The next data set has as its target T8, DRB1*1101 (Homo sapiens, UniProt P01903+P01911, A100R/A169T/A87E/I96F/K41T/L162R/M171V/P40S/Q125H/Q178H/Q39Y/Q99D/R42S/S66Y/T262R/V115G/W38E).
T8 construct: Epstein-Barr virus (EBV) transformed homozygous cell lines were used as sources of human HLA Class II molecules; endogenous in cells; host or cells: SWEIG (EBV-transformed homozygous B cell line)
Kind of data set: Class II peptide-binding assay DRB1*1101 (DR5w11).

For another data set, the target named is T9, DRB1*1302 (Homo sapiens, UniProt P01903+P01911, A100E/A169T/K41T/L162R/M171V/P40S/Q125H/Q178H/Q39Y/Q99D/R42S/S66N/T262R/V115G/W38E/Y61H).
T9 construct: Epstein-Barr virus (EBV) transformed homozygous cell lines were used as sources of human HLA Class II molecules; endogenous in cells; host or cells: HO301 / H0301 (EBV-transformed homozygous B cell line)
T9 sequence (P01903 26-254, other chains not shown): as above
The experiment in a line: Class II peptide-binding assay DRB1*1302 (DR6w19).

The next data set has as its target T10, DRB1*1501 (Homo sapiens, UniProt P01903+P01911).
T10 construct: expressed in transfected cells; host or cells: transfected fibroblasts L466.1
The experiment in a line: Class II peptide-binding assay DRB1*1501 (DR2w2b).

The target in a further data set is T11, DRB3*0101 (Homo sapiens, UniProt P01903+P79483).
T11 construct: expressed in transfected cells; host or cells: transfected fibroblasts TR81.19
The experiment in a line: Class II peptide-binding assay DRB3*0101 (DR52a).

For the next data set, the target named is T12, DRB4*0101 (Homo sapiens, UniProt P01903+P13762, G164S).
T12 construct: expressed in transfected cells; host or cells: transfected fibroblasts L257.6
The experiment in a line: Class II peptide-binding assay DRB4*0101 (DRw53).

Another data set has as its target T13, DRB5*0101 (Homo sapiens, UniProt P01903+Q30154).
T13 construct: Epstein-Barr virus (EBV) transformed homozygous cell lines were used as sources of human HLA Class II molecules; endogenous in cells; host or cells: GM3107 (EBV-transformed homozygous B cell line)
The experiment in a line: Class II peptide-binding assay DRB5*0101 (DR2w2a).

For data set [1] the following is noted: cited from earlier work.
Setting [2] is: scientific publications, package insert, FDA documents, patent applications.

Like-named read-outs stand apart in the source and are kept apart here.

T8 sequence (P01903 26-254, other chains not shown): as above

A word on the IC50: it is the midpoint of a concentration-inhibition curve. A lower IC50 goes with inhibition by little substance. Consider `CC(C)C[C@H](NC(=O)[C@@H]1CCCN1)C(=O)NCC(=O)N[C@@H](Cc1ccccc1)C(=O)N[C@@H](Cc1ccccc1)C(=O)N1CCC[C@H]1C(=O)N[C@@H](CC(=O)O)C(=O)N[C@@H](Cc1c[nH]cn1)C(=O)N[C@@H](CCC(N)=O)C(=O)N[C@@H](CC(C)C)C(=O)N[C@@H](CC(=O)O)C(=O)N1CCC[C@H]1C(=O)N[C@@H](C)C(=O)N[C@@H](Cc1ccccc1)C(=O)NCC(=O)N[C@@H](C)C(=O)N[C@@H](CC(N)=O)C(=O)N[C@@H](CO)C(=O)N[C@@H](CC(N)=O)C(=O)N[C@@H](CC(N)=O)C(=O)N1CCC[C@H]1C(=O)N[C@@H](CC(=O)O)C(=O)N[C@@H](Cc1c[nH]c2ccccc12)C(=O)N[C@@H](CC(=O)O)C(=O)N[C@@H](Cc1ccccc1)C(=O)N[C@@H](CC(N)=O)C(=O)N1CCC[C@H]1C(=O)O`, for which the IC50 was greater than 20 µM on DRB1*0101; greater than 20 µM on DRB1*0301; greater than 20 µM at DRB1*0401; greater than 20 µM at DRB1*0404; 0.031 µM at DRB1*0405; greater than 20 µM at DRB1*0701. Moreover, the IC50 on DRB1*0802 was greater than 20 µM; at DRB1*0901, 15.7 µM; at DRB1*1101 it was greater than 20 µM; at DRB1*1302, greater than 10 µM; on DRB1*1501, 1.98 µM; on DRB3*0101, 0.311 µM. The IC50 at DRB4*0101 was 3.14 µM; at DRB5*0101, greater than 20 µM.
“Calcitonin: 32 amino acid polypeptide derived from salmon origin”: the “Immunogenicity (documented)” value in data set [1] (human, in vivo) is recorded as “YES”.
Regarding “Insulin: human insulin, alpha and beta chains”, in data set [1] (setting [2]), the “Immunogenicity (documented)” value is listed as “YES”.
With “hGH: 191 amino acid protein produced by recombinant DNA technology”, the patients developing antibodies entry in [1] (human, in vivo) was “Thirty”. Moreover, the “Immunogenicity (documented)” value in data set [1] (setting [2]) was “YES”.

B1: IFNβ: interferon beta (protein)
chain: MSYNLLGFLQRSSNCQCQKLLWQLNGRLEYCLKDRRNFDIPEEIKQLQQFQKEDAAVTIYEMLQNIFAIFRQDSSSTGWNETIVENLLANVYHQRNHLKTVLEEKLEKEDFTRGKRMSSLHLKRYYGRILHYLKAKEDSHCAWTIVRVEILRNFYVINRLTGYLRN
For B1, the “Immunogenicity (documented)” value in data set [1] (setting [2]) is given as “YES”.
